# From patent US4169197A, “6-Deoxyneamines aminoglycoside compounds” (The Upjohn Company, priority 1978, dated 1979)
# Read-outs that look alike come from different tables or passages of the source.
# Columns and labels:
# Format in all cases: cell-based
# S. pneumoniae I UC 41 = assay: standard microplate test in BHI Agar; settings: Streptococcus pneumoniae, UC41, 20 h
# Summary of the method: (§1)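 End points are read after 20 hours of incubation at 37°. The medium is Brain Heart Infusion agar in a standard microplate format. Compounds are tested at 1 mg./ml. and at dilutions of that level.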
# S. pyogenes UC 152 = assay: standard microplate test in BHI Agar; settings: Streptococcus pyogenes, UC152, 20 h
# Summary of the method: as §1
# S. typhi UC 215 = assay: standard microplate test in BHI Agar; settings: Salmonella enterica, BHI Agar, 37°, 20 hours
# Summary of the method: as §1
# K. pneumoniae UC 58 = assay: standard microplate test in BHI Agar; settings: Klebsiella pneumoniae, UC58, 20 h
# Summary of the method: as §1
# P. rettgeri UC 339 = assay: standard microplate test in BHI Agar; settings: Providencia rettgeri, UC339, 20 h
# Summary of the method: as §1
# E. coli UC 45 = assay: standard microplate test in BHI Agar; settings: Escherichia coli, UC45, 37°, 20 hours, Table III, read-out: Minimum Inhibitory Concentration
# Summary of the method: as §1
# P. mirabilis UC 6671 = assay: standard microplate test in BHI Agar; settings: Proteus mirabilis, UC6671, 20 h
# Summary of the method: as §1
# S. aureus UC 76 = assay: standard microplate test in BHI Agar; settings: Staphylococcus aureus, UC76, 20 h
# Summary of the method: as §1
# P. morganii UC 3186 = assay: standard microplate test in BHI Agar; settings: Morganella morganii, UC3186, 20 h
# Summary of the method: as §1
# P. vulgaris UC 93 [1] = assay: standard microplate test in BHI Agar; settings: Proteus vulgaris, UC93, 20 h
# Summary of the method: as §1
# E. coli UC 311 = assay: standard microplate test in BHI Agar; settings: Escherichia coli, UC311, 20 h, read-out: Minimal Inhibitory Concentration
# Summary of the method: as §1
# S. schottmuelleri UC 126 [2] = assay: standard microplate test in BHI Agar; settings: 37°, 20 hours
# Summary of the method: as §1
# S. flexneri UC 143 = assay: standard microplate test in BHI Agar; settings: Shigella flexneri, UC143, 37°, 20 hours
# Summary of the method: as §1
# B. cereus UC 3145 = assay: standard disc plate assay, zones of inhibition; settings: Bacillus cereus, 12.5 mm paper discs; for zone of inhibition at 100 µg/mL: UC3145, read-out: Zones of Inhibition, 0.1 mg/ml; for zone of inhibition at 1000 µg/mL: UC3145, read-out: Zones of Inhibition, 1 mg/ml
# Summary of the method: (§2)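 In vitro testing: standard disc plate assay. Discs of 12.5 mm paper carry the compound; inhibition zones are measured.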
# K. pneumoniae UC 57 = assay: standard disc plate assay, zones of inhibition; settings: Klebsiella pneumoniae, 12.5 mm paper discs; for zone of inhibition at 100 µg/mL: UC57, read-out: Zones of Inhibition, 0.1 mg/ml; for zone of inhibition at 1000 µg/mL: UC57, read-out: Zones of Inhibition, 1 mg/ml
# Summary of the method: as §2
# S. aureus UC 80 = assay: standard disc plate assay, zones of inhibition; settings: Staphylococcus aureus, 12.5 mm paper discs; for zone of inhibition at 100 µg/mL: UC80, read-out: Zones of Inhibition, 0.1 mg/ml; for zone of inhibition at 1000 µg/mL: UC80, read-out: Zones of Inhibition, 1 mg/ml
# Summary of the method: as §2
# B. subtilis UC 564 = assay: standard disc plate assay, zones of inhibition; settings: Bacillus subtilis, 12.5 mm paper discs; for zone of inhibition at 100 µg/mL: UC564, read-out: Zones of Inhibition, 0.1 mg/ml; for zone of inhibition at 1000 µg/mL: UC564, read-out: Zones of Inhibition, 1 mg/ml
# Summary of the method: as §2
# S. lutea UC 130 = assay: standard disc plate assay, zones of inhibition
# Summary of the method: as §2
# P. vulgaris UC 93 [3] = assay: standard disc plate assay, zones of inhibition; settings: Proteus vulgaris, 12.5 mm paper discs; for zone of inhibition at 100 µg/mL: UC93, read-out: Zones of Inhibition, 0.1 mg/ml; for zone of inhibition at 1000 µg/mL: UC93, read-out: Zones of Inhibition, 1 mg/ml
# Summary of the method: as §2
# S. gallinarum UC 265 = assay: standard disc plate assay, zones of inhibition; settings: for Zones of Inhibition: 12.5 mm paper discs, Table II
# Summary of the method: as §2
# Ps. aeruginosa UC 95 = assay: standard disc plate assay, zones of inhibition; settings: Pseudomonas aeruginosa, UC95, read-out: Zones of Inhibition, 1 mg/ml, 12.5 mm paper discs
# Summary of the method: as §2
# S. schottmuelleri UC 126 [4] = assay: standard disc plate assay, zones of inhibition; settings: 12.5 mm paper discs; for zone of inhibition at 100 µg/mL: 0.1 mg/ml; for zone of inhibition at 1000 µg/mL: 1 mg/ml
# Summary of the method: as §2
# E. coli UC 51 = assay: standard disc plate assay, zones of inhibition; settings: Escherichia coli, 12.5 mm paper discs; for zone of inhibition at 100 µg/mL: UC51, read-out: Zones of Inhibition, 0.1 mg/ml; for zone of inhibition at 1000 µg/mL: UC51, read-out: Zones of Inhibition, 1 mg/ml
# Summary of the method: as §2
# [5] = read-out: Minimal Inhibitory Concentration
# [6] = read-out: Minimum Inhibitory Concentration
# [7] = Table III, read-out: Minimum Inhibitory Concentration
# [8] = Table IV, read-out: Minimal Inhibitory Concentration
# [9] = Salmonella enterica, read-out: Zones of Inhibition
compound,measurement,setting,value
NC[C@H]1O[C@H](O[C@H]2[C@H](O)[C@@H](O)[C@H](N)C[C@@H]2N)[C@H](N)[C@@H](O)[C@@H]1O [Neamine],MIC,S. pneumoniae I UC 41; [5],62.5 µg/mL
same,MIC,S. pneumoniae I UC 41; [6],62.5 µg/mL
same,MIC,S. pyogenes UC 152; [5],7.8 µg/mL
same,MIC,S. pyogenes UC 152; [6],7.8 µg/mL
same,MIC,S. typhi UC 215; [7],15.6 µg/mL
same,MIC,S. typhi UC 215; [8],31.2 µg/mL
same,MIC,K. pneumoniae UC 58; [5],7.8 µg/mL
same,MIC,K. pneumoniae UC 58; [6],15.6 µg/mL
same,MIC,P. rettgeri UC 339; [5],> 500 µg/mL
same,MIC,P. rettgeri UC 339; [6],250 µg/mL
same,MIC,E. coli UC 45,62.5 µg/mL
same,MIC,P. mirabilis UC 6671; [5],250 µg/mL
same,MIC,P. mirabilis UC 6671; [6],62.5 µg/mL
same,MIC,S. aureus UC 76; [5],7.8 µg/mL
same,MIC,S. aureus UC 76; [6],3.9 µg/mL
same,MIC,P. morganii UC 3186; [5],31.2 µg/mL
same,MIC,P. morganii UC 3186; [6],62.5 µg/mL
same,MIC,P. vulgaris UC 93 [1]; [5],62.5 µg/mL
same,MIC,P. vulgaris UC 93 [1]; [6],62.5 µg/mL
same,MIC,E. coli UC 311,125 µg/mL
same,MIC,S. schottmuelleri UC 126 [2]; [7],31.2 µg/mL
same,MIC,S. schottmuelleri UC 126 [2]; [8],15.6 µg/mL
same,MIC,S. flexneri UC 143; [7],62.5 µg/mL
same,MIC,S. flexneri UC 143; [8],125 µg/mL
same,zone of inhibition at 100 µg/mL,B. cereus UC 3145; Table I,15 mm
same,zone of inhibition at 100 µg/mL,B. cereus UC 3145; Table II,15 mm
same,zone of inhibition at 1000 µg/mL,B. cereus UC 3145; Table I,24 mm
same,zone of inhibition at 1000 µg/mL,B. cereus UC 3145; Table II,23 mm
same,zone of inhibition at 100 µg/mL,K. pneumoniae UC 57; Table I,27 mm
same,zone of inhibition at 100 µg/mL,K. pneumoniae UC 57; Table II,26 mm
same,zone of inhibition at 1000 µg/mL,K. pneumoniae UC 57; Table I,34 mm
same,zone of inhibition at 1000 µg/mL,K. pneumoniae UC 57; Table II,32 mm
same,zone of inhibition at 100 µg/mL,S. aureus UC 80; Table I,20 mm
same,zone of inhibition at 100 µg/mL,S. aureus UC 80; Table II,18 mm
same,zone of inhibition at 1000 µg/mL,S. aureus UC 80; Table I,29 mm
same,zone of inhibition at 1000 µg/mL,S. aureus UC 80; Table II,26 mm
same,zone of inhibition at 100 µg/mL,B. subtilis UC 564; Table I,30 mm
same,zone of inhibition at 100 µg/mL,B. subtilis UC 564; Table II,28 mm
same,zone of inhibition at 1000 µg/mL,B. subtilis UC 564; Table I,39 mm
same,zone of inhibition at 1000 µg/mL,B. subtilis UC 564; Table II,37 mm
same,Zones of Inhibition,"S. lutea UC 130; 1 mg/ml, 12.5 mm paper discs, Table II",17 mm
same,zone of inhibition at 1000 µg/mL,"S. lutea UC 130; Micrococcus luteus, UC130, read-out: Zones of Inhibition",17 mm
same,zone of inhibition at 100 µg/mL,P. vulgaris UC 93 [3]; Table I,18 mm
same,zone of inhibition at 100 µg/mL,P. vulgaris UC 93 [3]; Table II,15 mm
same,zone of inhibition at 1000 µg/mL,P. vulgaris UC 93 [3]; Table I,27 mm
same,zone of inhibition at 1000 µg/mL,P. vulgaris UC 93 [3]; Table II,28 mm
same,Zones of Inhibition,S. gallinarum UC 265; 0.1 mg/ml,19 mm
same,Zones of Inhibition,S. gallinarum UC 265; 1 mg/ml,29 mm
same,zone of inhibition at 100 µg/mL,S. gallinarum UC 265; [9],19 mm
same,zone of inhibition at 1000 µg/mL,S. gallinarum UC 265; [9],29 mm
same,zone of inhibition at 1000 µg/mL,Ps. aeruginosa UC 95; Table I,17 mm
same,zone of inhibition at 1000 µg/mL,Ps. aeruginosa UC 95; Table II,18 mm
same,zone of inhibition at 100 µg/mL,S. schottmuelleri UC 126 [4]; Table I,16 mm
same,zone of inhibition at 100 µg/mL,S. schottmuelleri UC 126 [4]; Table II,15 mm
same,zone of inhibition at 1000 µg/mL,S. schottmuelleri UC 126 [4]; Table I,24 mm
same,zone of inhibition at 1000 µg/mL,S. schottmuelleri UC 126 [4]; Table II,23 mm
same,zone of inhibition at 100 µg/mL,E. coli UC 51; Table I,19 mm
same,zone of inhibition at 100 µg/mL,E. coli UC 51; Table II,18 mm
same,zone of inhibition at 1000 µg/mL,E. coli UC 51; Table I,27 mm
same,zone of inhibition at 1000 µg/mL,E. coli UC 51; Table II,25 mm
